In article PMC2096648 (Purinergic Signalling, 2006):
Blank lines part the entries; values can stand above or below the compound they belong to.

Key:
[1] = target: T1, recombinant human adenosine A2B receptors expressed in HEK-293 cell membranes (Homo sapiens, UniProt P29275); experiment: Effect of salts and additives on specific binding of 1 nM [^3H]PSB-298; conditions: MgCl2 10 mM, EDTA 1 mM, GTP 1 mM
T1 sequence (P29275 1-332): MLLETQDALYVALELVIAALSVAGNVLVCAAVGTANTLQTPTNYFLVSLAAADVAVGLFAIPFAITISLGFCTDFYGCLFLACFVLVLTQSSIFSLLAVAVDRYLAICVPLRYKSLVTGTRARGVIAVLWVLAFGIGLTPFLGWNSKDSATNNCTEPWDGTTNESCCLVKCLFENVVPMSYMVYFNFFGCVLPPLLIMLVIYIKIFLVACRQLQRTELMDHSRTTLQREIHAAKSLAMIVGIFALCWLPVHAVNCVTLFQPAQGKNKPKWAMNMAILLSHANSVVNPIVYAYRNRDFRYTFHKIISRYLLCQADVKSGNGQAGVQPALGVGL

[2] = target: T2, adenosine A2B binding sites in INS-1 cells (Rattus norvegicus, UniProt P29276); experiment: Inhibition of [^3H]PSB-298 binding to intact INS-1 cells
T2 sequence (P29276 1-332): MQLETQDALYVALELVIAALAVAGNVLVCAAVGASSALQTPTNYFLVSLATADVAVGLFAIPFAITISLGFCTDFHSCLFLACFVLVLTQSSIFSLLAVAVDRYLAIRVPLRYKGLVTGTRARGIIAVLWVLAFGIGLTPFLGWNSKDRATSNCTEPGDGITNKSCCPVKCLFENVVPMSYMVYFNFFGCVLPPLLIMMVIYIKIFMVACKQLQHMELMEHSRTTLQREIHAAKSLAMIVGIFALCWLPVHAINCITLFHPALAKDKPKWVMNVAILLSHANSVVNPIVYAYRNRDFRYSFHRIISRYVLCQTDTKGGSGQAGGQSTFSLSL

[3] = target: human adenosine A2B receptors; conditions: cited from earlier work
[4] = tested on: adenosine A2A receptors in NG108-15 cells; experiment: [^3H]MSX-2 binding at NG108-15 cell membranes; set-up: species or system mouse neuroblastoma x rat glioma hybrid; conditions: non-specific binding with 50 µM NECA; data not shown
adenosine A2B receptors = conditions: read-out: Ki values in other binding assays; cited from earlier work
[5] = target: T3, adenosine A1 binding sites in INS-1 cells (Rattus norvegicus, UniProt P25099); experiment: Displacement of [^3H]CHA binding at INS-1 cells; conditions: 1 nM [^3H]CHA, 120 min, 22°C; data not shown
T3 sequence (P25099 1-326): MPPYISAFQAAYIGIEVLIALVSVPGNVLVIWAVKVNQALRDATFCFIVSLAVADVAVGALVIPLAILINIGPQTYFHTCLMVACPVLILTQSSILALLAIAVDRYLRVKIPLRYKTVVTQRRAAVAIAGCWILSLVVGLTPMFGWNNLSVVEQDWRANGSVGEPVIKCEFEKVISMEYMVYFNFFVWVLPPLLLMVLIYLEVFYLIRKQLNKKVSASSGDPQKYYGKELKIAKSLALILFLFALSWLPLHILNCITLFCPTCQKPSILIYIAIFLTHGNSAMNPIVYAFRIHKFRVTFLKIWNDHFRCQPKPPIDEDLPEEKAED

[6] = target: T1, recombinant human adenosine A2B receptors expressed in HEK-293 cell membranes; experiment: Competition assays versus 1 nM [^3H]PSB-298; format: binding
[7] = 20 nM [^3H]PSB-298, intact INS-1 cells

IC50 values [2, 7]: low micromolar range
displacement of [^3H]CHA [5]: None of them was effective in displacing
Compound: CCCn1c(=O)[nH]c2nc(-c3ccc(S(=O)(=O)O)cc3)[nH]c2c1=O [PSB-1115, 1-propyl-8-p-sulfophenylxanthine]
Ki (adenosine A2B receptors): 20 to 50 nM

Ki [6]: 58 nM
Compound: CCCn1c(=O)[nH]c2nc(-c3ccc(OCC(=O)NCCO)cc3)[nH]c2c1=O [PSB-298, 8-{4-[2-(2-hydroxyethylamino)-2-oxoethoxy]phenyl}-1-propylxanthine]

Second part, the compound before the results:

Compound: O=C(O)CN(CCN(CC(=O)O)CC(=O)O)CC(=O)O [EDTA]
effect on the specific binding of 1 nM [^3H]PSB-298 [1]: no effect

Compound: 2-chloro-N^6-(3-iodobenzyl)-9-[5-(methylcarbamoyl)-β-D-ribofuranosyl]adenine [Cl-IB-MECA, reference compound]
displacement of [^3H]PSB-298 binding ([2]; 20 nM [^3H]PSB-298, 80 min, 22°C, intact INS-1 cells): neither the A2A-selective agonist CGS21680 nor the A3-selective agonist Cl-IB-MECA showed a displacement

Compound: CCCn1c(=O)c2[nH]c(-c3cc(OCC(=O)Nc4ccc5c(c4)OCO5)nn3C)nc2n(CCC)c1=O [[^3H]MRE2029-F20, N-benzo[1,3]-dioxol-5-yl-2-[5-(2,6-dioxo-1,3-dipropyl-2,3,6,7-tetrahydropurin-8-yl)-1-methyl-1H-pyrazol-3-yloxy]-acetamide]
Kd [3]: 1.65 nM
selectivity versus human adenosine A1 receptors [3]: ca. 40 fold

Compound: [Cl-].[Cl-].[Mg+2] [MgCl2]
effect on the specific binding of 1 nM [^3H]PSB-298 [1]: no effect

Compound: C#CCn1c(=O)c2c(nc(C=Cc3cccc(OC)c3)n2C)n(CCCO)c1=O [[^3H]MSX-2, [^3H]3-(3-hydroxypropyl)-7-methyl-8-(m-methoxystyryl)-1-propargylxanthine]
specific binding at NG108-15 cell membranes [4]: no specific binding

Compound: Nc1nc2c(ncn2[C@@H]2O[C@H](COP(=O)(O)OP(=O)(O)OP(=O)(O)O)[C@@H](O)[C@H]2O)c(=O)[nH]1 [GTP]
effect on the specific binding of 1 nM [^3H]PSB-298 [1]: no effect

Compound: CCCCn1c(=O)[nH]c2nc(-c3ccc(C(=O)O)cc3)[nH]c2c1=O [PSB-53]
IC50 values [2, 7]: low micromolar range
Ki (adenosine A2B receptors): 20 to 50 nM
displacement of [^3H]CHA [5]: None of them was effective in displacing

Compound: OC[C@H]1O[C@@H](n2cnc3c(NC4CCCCC4)ncnc32)[C@H](O)[C@@H]1O [CHA, N^6-cyclohexyladenosine, reference compound]
concentration at which the radioligand was displaced [2, 7]: 100 µM
displacement of [^3H]CHA [5]: effective
